Measurements: patent US5886165A, “Mixed backbone antisense oligonucleotides containing 2'-5'-ribonucleotide- and 3'-5'-deoxyribonucleotides segments” (Hybridon, Inc., priority 1996, dated 1999)
pIC50: −log10 of the molar value. [25] = 2'-5' internucleotide linkage (phosphodiester)

Tests used:
[1] = system: citrated normal human donor plasma; assay: Clotting assay, activated partial thromboplastin time (aPTT); settings: compared to saline control; for 50% Prolongation of Clotting (aPTT): human plasma
Procedure: The activated partial thromboplastin time (aPTT) was performed with citrated normal human donor plasma in duplicate on an Electra 1000C (Medical Laboratory Automation, Mount Vernon, N.Y.) according to recommended procedures using Actin FSL (Baxter Dade, Miami, Fla.) and 2.5 mM calcium to initiate clot formation, which was measured photometrically. Normal plasma aPTT values ranged from 27 to 39 sec. Data were calculated as 50% of prolongation as compared to the saline control.

[2] = system: RNA target strand SEQ ID NO 9 (25 base sequence from the initiation codon region of the HIV-1 gag mRNA); assay: Thermal melting study, duplex with RNA target strand; type: binding; settings: for Tm RNA: duplex with RNA SEQ ID NO 9, 10 mM disodium hydrogen phosphate pH 7.5, 100 mM NaCl, 2.0 μM total strands; for Tm lower than duplex of control phosphorothioate oligonucleotide SEQ ID NO 8, RNA target: vs SEQ ID NO 8, RNA SEQ ID NO 9
Procedure: (§1) Thermal denaturation studies were carried out by mixing MBOs with the DNA or RNA target strands in equimolar ratios in 10 mM disodium hydrogen phosphate, pH 7.5±0.1, 100 mM sodium chloride buffer, heated to 95° C. for 10 min, and allowed to come to room temperature slowly before being stored at 4° C. overnight. The final total concentration of the oligonucleotide strands was 2.0 μM. Spectrophotometric measurements were performed at 260 nm using 1 cm path length quartz cuvettes at a heating rate of 0.5° C./min on a Perkin-Elmer (Norwalk, Conn.) Lambda 2 Specotrometer attached to a thermal controller and a personal computer. Melting temperatures (Tm) taken as the temperature of half-dissociation and were obtained from first derivative plots. Precision in Tm values estimated from variance in two or three repeated experiments was ±0.5° C.

HIV-1 = assay: Inhibition of HIV-1 replication in cell culture (MT-4 cells, MTT); type: cell-based; settings: for pIC50: 6 days
Procedure: Oligonucleotides according to the invention were studied for their ability to inhibit HIV-1. HIV-1 inhibition assay was carried out as described previously. Kandimalla et al., Nucleic Acids Res., supra). Briefly, serial dilutions of antisense oligonucleotides were prepared in 50 μl volumes of complete medium (RAMI-1640, 10% fetal bovine serum, 2 mM L-glutamine, 100 U/ml penicillin, […] streptomycin) in triplicate in 96-well plates. Virus diluted to contain a 90% CP dose of virus in 50 μl was added, followed by 100 μl 4×10^5 /ml MT-4 cells in complete medium. The plates were incubated at 37° C. in 5% CO2 for 6 days. MTT dye was added and quantified at A540 and A690 as described. The percent inhibition was calculated by the formula (experimental--virus control)/(medium control--virus control)×100.

[3] = system: DNA target strand SEQ ID NO 10 (25 base sequence from the initiation codon region of the HIV-1 gag mRNA); assay: Thermal melting study, duplex with DNA target strand; type: binding; settings: for Tm DNA: duplex with DNA SEQ ID NO 10, 10 mM disodium hydrogen phosphate pH 7.5, 100 mM NaCl, 2.0 μM total strands; for Tm lower than duplex of control phosphorothioate oligonucleotide SEQ ID NO 8, DNA target: vs SEQ ID NO 8, DNA SEQ ID NO 10
Procedure: as §1

Spleen cells (CD1 mouse) = assay: In vitro cell proliferation assay ([3H]thymidine); type: cell-based; settings: at 10 μg/ml, 48 hrs
Procedure: Cell proliferation assays were carried out as described earlier (Zhao et al., Biochem. Pharmacol 51, 173-182 (1996)). Spleen cells (4-5 week old male CD1 mouse, 20-22 gm, Charles River, Wilmington, Mass.) suspensions were prepared and plated in 96-well dishes at a density of 10^6 cells/ml in a final volume of 100 μl. The cells were incubated at 37° C. after adding 10 μl of oligonucleotides. After 44 hrs incubation, 1 μCi [3H]thymidine (Amersham, Arlington Heights, Ill.) was added and the cells were pulse-labeled for another 4 hrs. The cells were harvested by an automatic cell harvester and the filters were counted by a scintillation counter. All experiments were carried out in triplicate.

[4] = system: normal human serum complement lysis of sheep red blood cells; assay: CH50 hemolytic complement assay; settings: for 50% Inhibition of Complement Lysis: compared to saline control
Procedure: A CH50 assay for complement lysis of sheep red blood cells (Colorado Serum Co., Denver, Col.) sensitized with anti-sheep red cell antibody (hemolysin; Diamedix, Miami, Fla.) as previously described (Mayer, In Experimental Immunochemistry, Kabat and Mayer eds., C. C. Thomas, Springfield, pp. 125-131 (1961)), was modified to test 1-200 dilutions of normal human serum interpreted. Hemoglobin release into cell-free supernates was measured spectrophotometrically at 541 nm. Data were calculated as 50% inhibition of lysis compared to saline control.

[5] = Stability in DMEM cell culture medium containing 10% fetal calf serum; type: in vitro ADME; settings: DMEM with 10% non-heat-inactivated fetal calf serum, 37° C.
Procedure: Oligonucleotides were labeled at the 5'-end with ^32 P using γ-^32 P-ATP (Amersham) and T4 polynucleotide kinase (Promega). Sambrook et al, Molecular Cloning, supra. Stability of the oligonucleotides in cell culture medium containing 10% fetal calf serum was tested by incubating a small amount of labeled oligonucleotide together with 100 ng of cold oligonucleotide in DMEM cell culture medium (Gibco/BRL, Grand Island, N.Y.) containing 10% non-heat-inactivated fetal calf serum (Gibco/BRL) at 37° C. in a final volume of 40 μl, and aliquots were removed at different times.

S1 nuclease = target: T1, S1 nuclease (Aspergillus oryzae, UniProt P24021); assay: S1 nuclease assay; type: in vitro ADME; settings: 1.4 U, 37° C., pH 5.0
T1 construct: purchased Gibco/BRL
T1 sequence (P24021 21-287): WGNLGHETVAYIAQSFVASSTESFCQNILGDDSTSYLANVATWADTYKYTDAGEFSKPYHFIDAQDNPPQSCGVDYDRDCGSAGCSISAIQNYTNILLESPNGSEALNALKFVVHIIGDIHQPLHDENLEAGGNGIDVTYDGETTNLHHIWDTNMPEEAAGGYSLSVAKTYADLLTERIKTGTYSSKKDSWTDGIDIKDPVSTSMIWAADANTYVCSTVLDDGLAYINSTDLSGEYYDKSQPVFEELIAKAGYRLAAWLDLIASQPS
Procedure: For snake venom phosphodiesterase assay, labeled oligonucleotide with cold oligonucleotide in a buffer (10 mM Tris, pH 8.0, 100 mM sodium chloride, and 10 mM magnesium chloride) was incubated with 0.01 U of snake venom phosphodiesterase (Boehringer-Mannheim, Indianapolis, Ind.) at 21° C. (final volume 40 μl). Aliquots were removed at different time intervals for electrophoretic gel analysis. For S1 nuclease assay, reactions were carried out as above but in […] sodium acetate, pH 5.0, 10 mM zinc acetate buffer and with 1.4 U of S1 nuclease (Gibco/BRL) incubated at 37° C. in a final volume of 50 μl. Aliquots were removed at different time intervals for electrophoretic gel analysis. Nuclease reactions were stopped by adding 5 μl of formamide gel loading buffer to each sample and heating at 90° C. for 5 min. All the samples were then run by 20% PAGE (7M urea) and visualized by autoradiography.

Substance	50% Prolongation of Clotting (aPTT) [1]	Tm RNA [2] [°C]	Tm lower than duplex of control phosphorothioate oligonucleotide SEQ ID NO 8, RNA target [2] [°C]	pIC50 (HIV-1)	Tm DNA [3] [°C]	Tm lower than duplex of control phosphorothioate oligonucleotide SEQ ID NO 8, DNA target [3]	Stimulation Index (Lymphocyte Proliferation) (Spleen cells (CD1 mouse))	Stimulation Index (Lymphocyte Proliferation) (Spleen cells (CD1 mouse); listed as 3)	50% Inhibition of Complement Lysis [4] [µg/mL]	50% Prolongation of Clotting (aPTT) ([1]; listed as 8) [µg/mL]	Stimulation Index (Lymphocyte Proliferation) (Spleen cells (CD1 mouse); listed as 8)	effect on complement hemolytic activity (in words) [4]	pIC50 (HIV-1; listed as 5)	effect in coagulation assay (in words) ([1]; up to 100 μg/ml dose)	half-life in serum [5] [min]	digestion by S1 nuclease (in words) (S1 nuclease)	concentration required to achieve IC50 relative to control SEQ ID NO 8 (HIV-1; HIV-1 replication)	Stimulation Index (Lymphocyte Proliferation) (Spleen cells (CD1 mouse); listed as 6)
SEQ ID NO 3: Phosphorothioate analog of SEQ ID NO 1 (antisense CUCTCGCACCCATCTCTCTCCUUCT; phosphorothioate, chemistry not fully specified)	58.0 µg/mL	61.1	~2.4	7.53	51.9	about 4.70 °C	4.9	4.93 ± 0.15	95.2	–	–	–	–	–	–	–	–	–
SEQ ID NO 8: Control phosphorothioate oligonucleotide containing all 3'-5' linkages (CTCTCGCACCCATCTCTCTCCTTCT; all phosphorothioate, sugars by position and methylation of C not given here) [reference compound]	about 23 μg/ml	63.5	–	7.60	56.6	–	6.16	–	34.2	23.2	6.16 ± 0.12	inhibited serum complement hemolytic activity	–	–	–	–	–	–
SEQ ID NO 5: MBO with nine 2'-5'-linkages; 2'-5'-phosphodiester and 3'-5'-phosphorothioate linkages (antisense CUCTCGCACCCAUCTCTCTCCUUCT; nine 2'-5' phosphodiester linkages, other linkages 3'-5' phosphorothioate, further chemistry not given here)	115.0 µg/mL	61.2	–	< 6.10	43.2	–	1.09 ± 0.05	–	–	–	–	–	6.09	–	–	–	–	–
SEQ ID NO 7: Control phosphodiester oligonucleotide containing all 3'-5' linkages (CTCTCGCACCCATCTCTCTCCTTCT; all phosphodiester, sugars by position and methylation of C not given here) [reference compound]	> 100.0 µg/mL	70.5	–	–	63.5	–	1.10 ± 0.13	–	> 500.0	–	–	–	–	negligible effect	< 30	quickly digested	–	–
SEQ ID NO 2: MBO with three 2'-5'-linkages at each end; 2'-5'-phosphodiester and 3'-5'-phosphorothioate linkages (antisense CUCTCGCACCCATCTCTCTCCUUCT; linkages [25]3 s18 [25]3 (s phosphorothioate, o phosphodiester), sugars by position and methylation of C not given here)	51.1 µg/mL	63.3	–	7.00	52.5	–	2.82 ± 0.37	–	59.1	–	–	–	–	–	–	–	four fold higher concentration	–
SEQ ID NO 6: Phosphorothioate analog of SEQ ID NO 4, with nine 2'-5' linkages (antisense CUCTCGCACCCAUCTCTCTCCUUCT; all linkages phosphorothioate, nine 2'-5' linkages, further chemistry not given here)	98.3 µg/mL	56.4	7.1	–	39.4	17.2 °C	0.23	–	> 500.0	–	–	–	–	–	–	–	–	0.23 ± 0.04
